Laboratory results reported in patent US20100075965A1, “PI3 KINASE INHIBITORS AND METHODS OF THEIR USE” (Novartis AG, priority 2006, published 2010).
Like-named read-outs stand apart in the source and are kept apart here.

Experiments:
[1] = test system: A2780 cells; assay: Viability assay in A2780 (Cell Titer Glo); format: cell-based, human; details: Homo sapiens
Method in brief: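 EC50 values come from Cell Titer Glo luminescence after 72 hrs of compound exposure at 37° C, run in duplicate. A2780 cells were plated at 1,000 per well in DMEM with 10% FBS and dosed with 3-fold serial dilutions.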

[2] = test system: pSer473-Akt in A2780 cells; assay: pSer473 Akt assay to monitor PI3K pathway in A2780 cells (MSD); format: cell-based; details: Homo sapiens
Method in brief: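 EC50 is derived from percent inhibition of Akt Ser473 phosphorylation, normalised to total Akt and compared with DMSO-only wells, read by MSD immunoassay. Lysates came from A2780 cells plated overnight at 15,000/well and exposed to compound for one hour at 37 °C.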

[3] = target: PI3 K Alpha (Homo sapiens, UniProt P42336); assay: PI3 kinase phosphorylation assays (homogenous solution phase, one step solid phase, ATP depletion/KinaseGlo); format: biochemical
[4] = A2780 cells, read-out: A2780 Cell prolif. EC50
[5] = A2780 cells, read-out: A2780 pAKT 473 EC50
[6] = A2780, read-out: A2780 Cell prolif. EC50
[7] = A2780, read-out: A2780 pAKT 473 EC50

Chain of PI3 K Alpha (P42336 whole entry): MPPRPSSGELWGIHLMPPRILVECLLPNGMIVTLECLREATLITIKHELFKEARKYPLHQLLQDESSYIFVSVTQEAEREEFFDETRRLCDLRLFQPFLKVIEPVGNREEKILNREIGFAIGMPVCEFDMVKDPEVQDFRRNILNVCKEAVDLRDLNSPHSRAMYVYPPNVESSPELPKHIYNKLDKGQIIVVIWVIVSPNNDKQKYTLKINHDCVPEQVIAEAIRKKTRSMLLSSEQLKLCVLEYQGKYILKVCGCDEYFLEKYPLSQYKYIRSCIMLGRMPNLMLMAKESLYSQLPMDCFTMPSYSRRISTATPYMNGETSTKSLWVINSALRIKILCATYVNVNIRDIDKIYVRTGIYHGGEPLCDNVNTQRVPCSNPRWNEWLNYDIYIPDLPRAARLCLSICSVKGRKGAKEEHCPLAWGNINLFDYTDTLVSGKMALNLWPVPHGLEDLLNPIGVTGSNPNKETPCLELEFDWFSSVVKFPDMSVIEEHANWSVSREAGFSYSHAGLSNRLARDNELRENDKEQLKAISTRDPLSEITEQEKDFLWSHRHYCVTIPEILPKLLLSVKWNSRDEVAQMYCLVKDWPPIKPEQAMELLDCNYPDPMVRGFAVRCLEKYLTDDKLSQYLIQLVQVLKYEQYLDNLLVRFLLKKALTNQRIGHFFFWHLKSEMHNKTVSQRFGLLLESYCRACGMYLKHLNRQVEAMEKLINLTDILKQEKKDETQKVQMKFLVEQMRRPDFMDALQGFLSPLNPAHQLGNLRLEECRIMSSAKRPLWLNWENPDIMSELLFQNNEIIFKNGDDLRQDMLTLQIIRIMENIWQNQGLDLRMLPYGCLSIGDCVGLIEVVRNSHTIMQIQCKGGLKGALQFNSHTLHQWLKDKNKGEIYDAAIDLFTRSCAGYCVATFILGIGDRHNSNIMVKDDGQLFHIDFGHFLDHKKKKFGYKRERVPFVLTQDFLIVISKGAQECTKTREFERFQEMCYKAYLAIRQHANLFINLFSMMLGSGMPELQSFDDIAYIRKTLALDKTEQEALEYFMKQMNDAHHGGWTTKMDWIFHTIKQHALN
Chain of PI3 K Alpha (P27986 whole entry partner): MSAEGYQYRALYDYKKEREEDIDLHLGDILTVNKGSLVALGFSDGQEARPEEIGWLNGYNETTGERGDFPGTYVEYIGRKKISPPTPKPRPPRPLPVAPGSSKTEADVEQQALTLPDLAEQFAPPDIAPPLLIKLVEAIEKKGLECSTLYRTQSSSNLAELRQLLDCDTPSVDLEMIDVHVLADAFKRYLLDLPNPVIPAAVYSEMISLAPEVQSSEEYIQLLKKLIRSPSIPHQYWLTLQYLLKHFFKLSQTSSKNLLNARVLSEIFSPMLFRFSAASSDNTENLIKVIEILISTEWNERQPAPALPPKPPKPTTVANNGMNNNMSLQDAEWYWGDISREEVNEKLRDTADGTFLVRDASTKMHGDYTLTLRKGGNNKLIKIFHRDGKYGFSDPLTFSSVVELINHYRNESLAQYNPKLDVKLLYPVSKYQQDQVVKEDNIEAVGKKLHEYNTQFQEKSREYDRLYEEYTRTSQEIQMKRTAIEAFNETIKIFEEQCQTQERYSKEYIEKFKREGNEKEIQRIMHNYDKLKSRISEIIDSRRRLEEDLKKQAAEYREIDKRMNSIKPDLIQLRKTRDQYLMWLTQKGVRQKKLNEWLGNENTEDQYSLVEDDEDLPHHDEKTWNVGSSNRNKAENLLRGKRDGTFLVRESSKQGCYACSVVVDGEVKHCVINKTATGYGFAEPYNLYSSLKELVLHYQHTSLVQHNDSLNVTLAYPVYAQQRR

SMILES	EC50 [1, 4] [µM]	EC50 [2, 5] [µM]	IC50 ([3]; read-out: PI3K Alpha IC50) [µM]	EC50 [1, 6] [µM]	EC50 [2, 7] [µM]	IC50 [3] [µM]
COc1ccc(CC(=O)Nc2cn3cc(-c4cnc(N)c(C(F)(F)F)c4)ccc3n2)cc1OC [Example 51]	< 10	< 1	< 1			
CC(=O)Nc1cn2cc(-c3cnc(N)c(OC4CCC4)n3)ccc2n1 [Example 64, N-(6-(5-amino-6-cyclobutoxy-pyrazin-2-yl)imidazo[1,2-a]pyridin-2-yl)acetamide]	< 1	< 1	< 1			
CC(=O)Nc1nc2ccc(-c3cnc(N)c(C(F)(F)F)c3)cn2c1C#Cc1ccncc1 [Example 68, N-(6-(6-amino-5-(trifluoromethyl)pyridin-3-4-ylethynyl)imi-dazo[1,2-a]pyridin-2-yl)acetamide]				< 1	< 1	< 1
CC(=O)Nc1cn2nc(-c3cnc(N)c(-c4ccccc4F)c3)ccc2n1 [Example 81, N-(6-(6-amino-5-(2-fluorophenyl)pyridin-3-yl)imidazo[1,2-b]pyridazin-2-yl)acetamide]	< 1	< 1	< 1			
Nc1ncc(-c2ccc3nc(NC(=O)CO[C@H]4CCNC4)cn3n2)cc1C(F)(F)F [Example 82, (S)-N-(6-(6-amino-5-(trifluoromethyl)pyridin-3-yl)imidazo[1,2-b]pyridazin-2-yl)-2-(pyrrolidin-3-yloxy)acetamide]	< 1	< 1	< 1			
CC(=O)Nc1nc2ccc(-c3cnc(N)c(C(F)(F)F)c3)cn2c1C#Cc1cccnc1 [Example 83, N-(6-(6-amino-5-(trifluoromethyl)pyridin-3-yl)-3-(pyridin-3-ylethynyl)imi-dazo[1,2-a]pyridin-2-yl)acetamide]				< 1	< 1	< 1
CC(=O)Nc1cn2nc(-c3cnc(N)c(-c4ccccc4)c3)ccc2n1 [Example 84, N-(6-(6-amino-5-phenylpyridin-3-yl)imidazo[1,2-b]pyridazin-2-yl)acetamide]	< 1	< 1	< 1			
CC(C)(C)OC(=O)N1CCN(c2ccc(C(=O)Nc3cn4cc(-c5cnc(N)c(C(F)(F)F)c5)ccc4n3)cn2)CC1 [Example 85, tert-butyl 4-(5-(6-(6-amino-5-(trifluoromethyl)pyridin-3-yl)imidazo[1,2-a]pyridin-2-ylcarbamoyl)pyridin-2-yl)piperazine-1-carboxylate]	< 1	< 1	< 1			
CC(=O)Nc1cn2cc(-c3cnc(N)c(-c4cccc(N5CCOCC5)c4)c3)ccc2n1 [Example 86, N-(6-(6-amino-5-(3-morpholino-phenyl)pyridin-3-yl)imidazo[1,2-a]pyridin-2-yl)acetamide]	< 1	< 1	< 1			
CC(=O)Nc1cn2nc(-c3cnc(N)c(Cl)c3)ccc2n1 [Example 87, N-(6-(6-amino-5-chloropyridin-3-yl)imidazo[1,2-b]pyridazin-2-yl)acetamide]	< 1	< 1	< 1			
CC(=O)Nc1cn2cc(-c3cnc(N)c(-c4cccc(C(F)(F)F)c4)c3)ccc2n1 [Example 88, N-(6-(6-amino-5-(3-(trifluoromethyl)phenyl)pyridin-3-yl)imidazo[1,2-a]pyridin-2-yl)acetamide]	< 1	< 1	< 1			
COCC(=O)Nc1cn2cc(-c3cnc(N)c(OCC(F)(F)F)n3)ccc2n1 [Example 89]	< 1	< 1	< 1			

Further lines, with some results ahead:

EC50 [1, 4] [µM]	EC50 [2, 5] [µM]	IC50 ([3]; read-out: PI3K Alpha IC50) [µM]	SMILES	EC50 [1, 6] [µM]	EC50 [2, 7] [µM]	IC50 [3] [µM]
< 1	< 1	< 1	CC(=O)Nc1cn2nc(-c3cnc(N)c(-c4ccccc4C(F)(F)F)c3)ccc2n1 [Example 53, N-(6-(6-amino-5-(2-(trifluoromethyl)phenyl)pyridin-3-yl)imidazo[1,2-b]pyridazin-2-yl)acetamide]			
< 1	< 10	< 1	CC(=O)Nc1cn2cc(-c3cnc(N)c(/C=N/Nc4ccccc4)c3)ccc2n1 [Example 58, (E)-N-(6-(6-amino-5-((2-phenylhydrazono)methyl)pyridin-3-yl)imidazo[1,2-a]pyridin-2-yl)acetamide]			
< 1	< 1	< 1	Nc1ncc(-c2ccc3nc(NC(=O)CCC4CCCCN4)cn3n2)cc1C(F)(F)F (stereo not drawn) [Example 59, N-(6-(6-amino-5-(trifluoromethyl)pyridin-3-yl)imidazo[1,2-b]pyridazin-2-yl)-3-(piperidin-2-yl)propanamide]			
< 1	< 1	< 1	CNCC(=O)Nc1cn2nc(-c3cnc(N)c(C(F)(F)F)c3)ccc2n1 [Example 60, N-(6-(6-amino-5-(trifluoromethyl)pyridin-3-yl)imidazo[1,2-b]pyridazin-2-yl)-2-(methylamino) acetamide]			
< 1	< 1	< 1	CC(=O)Nc1cn2cc(-c3cnc(N)c(Oc4ccc(F)cc4)n3)ccc2n1 [Example 63, N-(6-(5-amino-6-(4-fluorophenoxy)pyrazin-2-yl)imidazo[1,2-a]pyridin-2-yl)acetamide]			
< 1	< 1	< 1	CC(=O)Nc1cn2cc(-c3cnc(N)c(Oc4cccc(F)c4)n3)ccc2n1 [Example 65, N-(6-(5-amino-6-(3-fluorophenoxy)pyrazin-2-yl)imidazo[1,2-a]pyridin-2-yl)acetamide]			
< 1	< 1	< 1	CN(C)CCCC(=O)Nc1cn2nc(-c3cnc(N)c(C(F)(F)F)c3)ccc2n1 [Example 66, N-(6-(6-amino-5-(trifluoromethyl)pyridin-3-yl)imidazo[1,2-b]pyridazin-2-yl)-4-(dimethylamino) butanamide]			
< 1	< 1	< 1	CC(=O)Nc1cn2cc(-c3cnc(N)c(OC4CN(C(=O)OC(C)(C)C)C4)n3)ccc2n1 [Example 67, tert-butyl 3-(6-(2-acetamido-imidazo[1,2-a]pyridin-6-yl)-3-aminopyrazin-2-yloxy)axetidine-1-carboxylate]			
< 1	< 1	< 1	Nc1ncc(-c2ccc3nc(NC(=O)CO[C@@H]4CCNC4)cn3n2)cc1C(F)(F)F [Example 69, (R)-N-(6-(6-amino-5-(trifluoromethyl)pyridin-3-yl)imidazo[1,2-b]pyridazin-2-yl)-2-(pyrrolidin-3-yloxy)acetamide]			
< 1	< 1	< 1	Nc1ncc(-c2ccc3nc(NC(=O)CCCN4CCCCC4)cn3n2)cc1C(F)(F)F [Example 71, N-(6-(6-amino-5-(trifluoromethyl)pyridin-3-yl)imidazo[1,2-b]pyridazin-2-yl)-4-(piperidin-1-yl)butanamide]			
< 1	< 1	< 1	CC(=O)Nc1cn2nc(-c3cnc(N)c(OC(F)F)c3)ccc2n1 [Example 72, N-(6-(6-amino-5-(difluoromethoxy)pyridin-3-yl)imidazo[1,2-b]pyridazin-2-yl)acetamide]			
< 1	< 1	< 1	COCCCOc1nc(-c2ccc3nc(NC(C)=O)cn3c2)cnc1N [Example 73]			
< 1	< 1	< 1	COCC(=O)Nc1cn2nc(-c3cnc(N)c(C(F)(F)F)c3)ccc2n1 [Example 74, n-(6-(6-amino-5-(trifluoromethyl)pyridin-3-yl)imidazo[1,2-b]pyridazin-2-yl)-2-methoxyacetamide]			
< 1	< 1	< 1	CC(=O)Nc1cn2cc(-c3cnc(N)c(Oc4ccccc4)n3)ccc2n1 [Example 75, N-(6-(5-amino-6-phenoxypyrazin-2-yl)imidazo[1,2-a]pyridin-2-yl)acetamide]			
< 1	< 1	< 1	CC(=O)Nc1cn2cc(-c3cnc(N)c(/C=N/NCC(F)(F)F)c3)ccc2n1 [Example 76, (E)-N-(6-(6-amino-5-((2-(2,2,2-trifluoroethyl) hydrazono)methyl)pyridin-3-yl)imidazo[1,2-a]pyridin-2-yl)acetamide]			
< 1	< 1	< 1	NCC(=O)Nc1cn2nc(-c3cnc(N)c(C(F)(F)F)c3)ccc2n1 [Example 77, 2-amino-N-(6-(6-amino-5-(trifluoromethyl)pyridin-3-yl)imidazo[1,2-b]pyridazin-2-yl)acetamide]			
< 1	< 1	< 1	Nc1ncc(-c2ccc3nc(NC(=O)c4ccc(F)cc4)cn3c2)cc1C(F)(F)F [Example 78, N-(6-(6-amino-5-(trifluoromethyl)pyridin-3-yl)imidazo[1,2-a]pyridin-2-yl)-4-fluorobenzamide]			
< 1	< 10	< 1	CC(C)(C)OC(=O)NCCCC(=O)Nc1cn2nc(-c3cnc(N)c(C(F)(F)F)c3)ccc2n1 [Example 79, tert-butyl 4-(6-(6-amino-5-(trifluoromethyl)pyridin-3-yl)imidazo[1,2-b]pyridazin-2-ylamino)-4-oxobutylcarbamate]			
< 1	< 1	< 1	CNCC(=O)Nc1cn2cc(-c3cnc(N)c(C(F)(F)F)c3)ccc2n1 [Example 80, N-(6-(6-amino-5-(trifluoromethyl)pyridin-3-yl)imidazo[1,2-a]pyridin-2-yl)-2-(methylamino) acetamide]			
